Reference: US20250085272A1, “METHODS AND SYSTEMS FOR MODULATING AND MODELING AGING AND NEURODEGENERATION DISEASES” (MEMORIAL SLOAN-KETTERING CANCER CENTER, priority 2022, published 2025)
Entries after “also recorded” stand apart in the source; their conditions may differ.

What was measured:
Format in all cases: cell-based, human
[1] = test system: conjugation of NEDD8 to target proteins; assay: Western blotting for conjugation of NEDD8 to target proteins in cortical neurons; details: 1 μM; postmitotic cortical neurons; 3 hours or 7 days of treatment
Description: (§1) Western blotting. Samples for western blotting were harvested, pelleted and snap frozen. Cell pellets were resuspended in RIPA buffer supplemented with Halt protease and phosphatase inhibitors (ThermoFisher) followed by centrifugation to clarify the sample. Protein concentration was quantified using the Precision Red Advanced Protein Assay according to manufacturer's instructions and equal amounts of protein were mixed with NuPAGE LDS Sample Buffer and NuPAGE Sample Reducing Agent and heated to 72 degrees for 10 mins. A total of 5-20 μg of protein was separated on NuPAGE Novex 4-12% Bis Tris gels and transferred by wet blotting onto PVDF membranes. Membranes were blocked in 5% milk protein or 5% BSA when probing for the phospho-Tau. Primary antibodies used for this study were: β-ACTIN (Sigma, A2228-100UL), BAG1 (Santa Cruz, sc-33704), BAG3 (Abcam, ab47124), Cas9 (Cell Signaling Technologies; 14697S), GAPDH-HRP (Santa Cruz Biotech, sc-47724 HRP), LMNB1 (Abcam, ab16048), NAE1(Cell Signaling Technologies, 14321S), NEDD8 (Abcam, ab81264), p21 (Cell Signaling Technologies, 2947), TAU (Dako, A0024), p-TAU(S202/T205) (Thermo Fisher; MN1020), UBA3 (Abcam, ab124728). Band intensity was visualized using BioRad ChemiDoc XRS+molecular imager. After imaging the membrane was re-probed with either GAPDH or β-ACTIN antibodies for normalization. Band intensity was quantified using Fiji.

[2] = test system: neurons with the PSEN^M146V/M146V mutation; assay: Viability of neurons with the PSEN^M146V/M146V mutation; details: PSEN^M146V/M146V neurons (FIG. 25B)
[3] = test system: H9-Nurr1^GFP neurons having the LRRK2 G2019S mutation; assay: Viability of neurons with the LRRK2 G2019S mutation; details: LRRK2 G2019S neurons (FIG. 26C)
[4] = test system: APP^swe/swe cortical neurons; assay: pATM immunofluorescence (DNA damage); details: 1 μM for 7 days
Description: Immunocytochemistry. Cells were fixed in 4% paraformaldehyde for 10 mins then permeabilized in PBS+0.3% Triton. Cells were blocked in 5% donkey or goat serum for 1 h. Primary antibody incubation was performed overnight. Primary antibodies used in this study were: p-ATM (S1981) (Thermo Fisher; MA1-2020), Cas9 (Cell Signaling Technologies; 14697S), COL1A1 (R&D; AF6220), FOXG1 (Takara; M227), Ki67 (Dako; M7240), MAP2 (Thermo Fisher; PA1-16751), NANOG (Cell Signaling Technologies; 4903S), PAX6 (Biolegend; 901301), TAU (Thermo Fisher; MN1000), p-TAU (S235) (Thermo Fisher; PA5-104785). For all image quantifications images were taken from 3 individual wells and averaged. This was repeated three times with neurons from independent differentiations. Volocity was used to count MAP2+ and Ki67+ cells with pyknotic. DAPI^bright nuclei excluded from the cell count. FIJI was used for TAU and pATM quantifications.

[5] = test system: wild-type or APP^swe/swe neurons; assay: Flow cytometry for aging hallmarks (proteostasis, heterochromatin, senescence)
Description: Flow Cytometry. Neuronal cultures were dissociated to single cell suspensions using Accutase (Innovative Cell Technologies) supplemented with Neuron Isolation Enzyme for Pierce™ (Thermo 88285) solution at 1:50. Single cell suspensions were stained with Zombie UV™ Fixable Viability Kit (Biolegend 423107) at 1:2500 in PBS for 15 minutes at room temperature, followed by fixation in 4% Paraformaldehyde for 10 minutes (4° C.). Cells stained with CellEvent Senescence Green (Thermo C10840) were done so at 1:250 in assay buffer for 2 hours at 37° C. For intracellular probes, cells were permeabilized in 0.5% triton-x for 10 minutes (4° C.), and blocked in 5% BSA for 10 minutes (4° C.). Cells were stained with H3k9me3-PE antibody (Cell Signaling Technologies #13969S) diluted 1:200, and Proteostat (Enzo Life Sciences ENZ-51023-KP050) diluted 1:2500, in 5% BSA in PBS for 30 minutes at 4° C. Cells were analyzed on the Cytek Aurora Flow Cytometer. Experiments were repeated with cells from 3 independent differentiations.

[6] = test system: APP^swe/swe neurons; assay: Senescence associated β-gal, brightfield images; details: 1 μM for 10 days
[7] = test system: APP^swe/swe neurons; assay: Western blotting for p21, LMNB1, BAG1 and BAG3; details: 1 μM from DIV50-DIV60
Description: as §1

[8] = test system: APP^swe/swe neurons; assay: Western blotting for pTau(S202/T205) and total Tau, APP^swe/swe neurons
Description: as §1

[9] = test system: wild-type neurons; assay: Western blotting for pTau(S202/T205) and total Tau, wild-type neurons; details: wild-type neurons (FIG. 23C)
Description: as §1

[10] = test system: AD neurons; assay: Nuclear roundness and nuclear area of AD neurons

SMILES: NS(=O)(=O)OC[C@@H]1C[C@@H](n2ccc3c(N[C@H]4CCc5ccccc54)ncnc32)C[C@@H]1O [MLN4924, [(1S,2S,4R)-4-[4-[[(1S)-2,3-Dihydro-1H-inden-1-yl]amino]-7H-pyrrolo[2,3-d]pyrimidin-7-yl]-2-hydroxycyclopentyl]methyl sulfamic acid ester]
- conjugation of NEDD8 to target proteins [1]: effectively block the conjugation of NEDD8 to target proteins; also recorded: blocks conjugation of NEDD8 to target proteins
- viability [2]: reduced viability
- viability [3]: reduced viability
- pATM induction (DNA damage) [4]: pATM induction
- cellular hallmarks of age ([5]; 1 μM for 7 or 10 days, AD-PSC (APP^swe/swe) cortical neurons (FIGS. 3A-3E)): induces cellular hallmarks of age
- cellular age (protein aggregation, senescence, histone methylation) ([5]; wild-type or APP^swe/swe neurons, versus DMSO (FIG. 27)): induces cellular age in both wild-type and disease backgrounds
- β-gal positive neurons (senescence) [6]: induction of showing β-gal positive
- cellular senescence (p21, LAMNB1 Western blotting) [7]: increased cellular senescence
- proteostasis (BAG1, BAG3 Western blotting) [7]: loss of proteostasis
- changes in phosphorylated Tau ([8]; 1 μM from DIV50-DIV60, App^swe/swe versus wild-type neurons (FIGS. 4C-4F)): AD-specific changes in phosphorylated Tau
- high molecular weight form of pTAU(AT8) ([8]; AD neurons (FIG. 23A-23B)): increase in the high molecular weight form
- major form of pTAU(AT8) ([8]; AD neurons (FIG. 23A-23B)): decrease in major form of pTAU(AT8)
- change in pTAU(AT8) forms [9]: did not show the change
- nuclear roundness (nuclear lamina defects) ([10]; AD neurons (FIG. 28A)): decreased nuclear roundness
- nuclear area (cellular senescence) ([10]; AD neurons (FIG. 28B)): increased nuclear area
